According to patent US20040053918A1, “Erythropoietin production potentiator” (KOWA CO., LTD., priority 2002, published 2004):

Experiments:
Format in all cases: cell-based
[1] = tested on: Hep3B cells; test: EPO produced by Hep3B cells under 21% O2, ELISA of culture supernatant
Method: (§1) Hep3B cells, which produce EPO at a low O2 partial pressure, were cultured in an amount of 1.5-3.0×10^6 cells/petri dish (100 mm) by use of Dulbecco's modified eagles' medium (DMEM)/10% fetal calf serum (FCS) (10 ml). The next day, the culture liquid of each petri dish was renewed, and a predetermined amount of compound 1 was added thereto, followed by culture for 24 hours at 37° C. under 1% O2 or 21% O2. EPO contained in the resultant culture supernatant was measured through ELISA. Separately, EPO potentiator activity was measured in the following manner. The luciferase-pXP2 (serving as a reporter gene) of a Hep3B wild-type gene was ligated with an enhancer and potentiator fragment (144 bp), to thereby produce a modified Hep3B wild-type gene as Pwt. Hep3B cells were cultured in an amount of 1×10^6 cells/petri dish (30 mm) by use of 4-mL DMEM/10% FCS, and the above modified wild-type (2 μg) and β-galactosidase gene (1 μg) (serving as an internal standard) were inserted into each of the cultured cells through the lipofectin method. […] After completion of culture, luciferase activity and β-galactosidase activity of the resultant cell extract were determined. EPO potentiator activity is represented by the following formula.

[2] = tested on: Hep3B cells; test: EPO produced by Hep3B cells under 1% O2, ELISA of culture supernatant
Method: as §1

[3] = tested on: EPO enhancer and potentiator fragment luciferase reporter in Hep3B cells; test: EPO potentiator activity, luciferase reporter (Pwt) in Hep3B cells, hypoxic induction; conditions: control HI 52.2±10.7
Method: Hep3B cells, which produce EPO at a low O2 partial pressure, were cultured in an amount of 1.5-3.0×10^6 cells/petri dish (100 mm) by use of Dulbecco's modified eagles' medium (DMEM)/10% fetal calf serum (FCS) (10 ml). […] EPO contained in the resultant culture supernatant was measured through ELISA. Separately, EPO potentiator activity was measured in the following manner. The luciferase-pXP2 (serving as a reporter gene) of a Hep3B wild-type gene was ligated with an enhancer and potentiator fragment (144 bp), to thereby produce a modified Hep3B wild-type gene as Pwt. Hep3B cells were cultured in an amount of 1×10^6 cells/petri dish (30 mm) by use of 4-mL DMEM/10% FCS, and the above modified wild-type (2 μg) and β-galactosidase gene (1 μg) (serving as an internal standard) were inserted into each of the cultured cells through the lipofectin method. […] After completion of culture, luciferase activity and β-galactosidase activity of the resultant cell extract were determined. EPO potentiator activity is represented by the following formula.
HI (hypoxic induction)=(1% O2 luciferase/β-galactosidase)/(21% O2 luciferase/β-galactosidase)

COc1cc(C=CCCCN2CCCN(CCCC=Cc3cc(OC)c(OC)c(OC)c3)CC2)cc(OC)c1OC [compound 1, N,N′-bis(5-(3,4,5-trimethoxyphenyl)-4-pentenyl)homopiperazine]
amount of EPO ([1]; 21% O2 (normal O2 partial pressure), 24 h, 10 μM compound 1, control 33.6±8.7): 49.5±2.3 mU/protein μg | amount of EPO ([1]; 21% O2, 24 h, 15 μM compound 1, control 33.6±8.7): 56.4±2.2 mU/protein μg | amount of EPO ([1]; 21% O2, 24 h, 30 μM compound 1, control 33.6±8.7): 116.8±5.2 mU/protein μg | amount of EPO ([2]; 1% O2 (low O2 partial pressure), 24 h, 10 μM compound 1, control 39.5±9.1): 71.0±6.0 mU/protein μg | amount of EPO ([2]; 1% O2, 24 h, 15 μM compound 1, control 39.5±9.1): 76.0±13.5 mU/protein μg | amount of EPO ([2]; 1% O2, 24 h, 30 μM compound 1, control 39.5±9.1): 91.5±17.8 mU/protein μg | HI (hypoxic induction), EPO potentiator activity ([3]; 10 μM compound 1 alone): 91.0±36.6 | HI (hypoxic induction), EPO potentiator activity ([3]; 10 μM compound 1 in the presence of 10^−3M L-NMMA): 63.4±7.5
